Measured values: US9453026B2, “ACC inhibitors and uses thereof” (Gilead Apollo, Inc., priority 2011, dated 2016)

Target: ACC2 (Homo sapiens, UniProt O00763)
Test: In vitro ACC2 inhibition assay (ADP-Glo)
Assay type: biochemical
Details: read-out: ACC2
Method: An exemplary procedure for the in vitro ACC inhibition assay, which can be used to determine the inhibitory action of compounds of the invention toward either ACC1 or ACC2, follows. The ADP-Glo™ Kinase Assay kit from Promega was used. The ADP-Glo™ Kinase Assay is a luminescent ADP detection assay to measure enzymatic activity by quantifying the amount of ADP produced during an enzyme reaction. The assay is performed in two steps; first, after the enzyme reaction, an equal volume of ADP-Glo™ Reagent is added to terminate the reaction and deplete the remaining ATP. Second, the Kinase Detection Reagent is added to simultaneously convert ADP to ATP and allow the newly synthesized ATP to be measured using a luciferase/luciferin reaction. Luminescence can be correlated to ADP concentrations by using an ATP-to-ADP conversion curve. The detailed procedure is as follows. 50 μL of the compound being tested (600 uM in DMSO) was added to a 384-well dilution plate. The compound was diluted 1:3 in succession in DMSO for each row for 11 wells. 0.5 μL ACC2 working solution was added to 384-well white Optiplate assay plate. 0.5 μL diluted compound solution in each column from step 2 to assay plate, each row containing 2 replicates. […] The plates were incubated at room temperature for 15 minutes. 5 μL substrate working solution was added to each well to initiate reaction. […] Plates were incubated at room temperature for 60 minutes. 10 μL ADP glo reagent was added. Plates were incubated at room temperature for 40 minutes. 20 μL kinase detection reagent was added.
Data for each concentration, as well as the positive and negative controls were averaged, and the standard deviation calculated. Percent inhibition was calculated by the formula: 100× (average negative control−compound)/(average negative control−average positive control). The IC50 for each compound was calculated by fitting the data with a non-linear regression equation: Y=Bottom+(Top-Bottom)/(1+10^((Log IC50−X)*HillSlope)), where X is the log of compound concentration and Y is percent inhibition.
The compound numbers correspond to the compound numbers in Table 1.

Chain of ACC2 (O00763 whole entry, species assumed): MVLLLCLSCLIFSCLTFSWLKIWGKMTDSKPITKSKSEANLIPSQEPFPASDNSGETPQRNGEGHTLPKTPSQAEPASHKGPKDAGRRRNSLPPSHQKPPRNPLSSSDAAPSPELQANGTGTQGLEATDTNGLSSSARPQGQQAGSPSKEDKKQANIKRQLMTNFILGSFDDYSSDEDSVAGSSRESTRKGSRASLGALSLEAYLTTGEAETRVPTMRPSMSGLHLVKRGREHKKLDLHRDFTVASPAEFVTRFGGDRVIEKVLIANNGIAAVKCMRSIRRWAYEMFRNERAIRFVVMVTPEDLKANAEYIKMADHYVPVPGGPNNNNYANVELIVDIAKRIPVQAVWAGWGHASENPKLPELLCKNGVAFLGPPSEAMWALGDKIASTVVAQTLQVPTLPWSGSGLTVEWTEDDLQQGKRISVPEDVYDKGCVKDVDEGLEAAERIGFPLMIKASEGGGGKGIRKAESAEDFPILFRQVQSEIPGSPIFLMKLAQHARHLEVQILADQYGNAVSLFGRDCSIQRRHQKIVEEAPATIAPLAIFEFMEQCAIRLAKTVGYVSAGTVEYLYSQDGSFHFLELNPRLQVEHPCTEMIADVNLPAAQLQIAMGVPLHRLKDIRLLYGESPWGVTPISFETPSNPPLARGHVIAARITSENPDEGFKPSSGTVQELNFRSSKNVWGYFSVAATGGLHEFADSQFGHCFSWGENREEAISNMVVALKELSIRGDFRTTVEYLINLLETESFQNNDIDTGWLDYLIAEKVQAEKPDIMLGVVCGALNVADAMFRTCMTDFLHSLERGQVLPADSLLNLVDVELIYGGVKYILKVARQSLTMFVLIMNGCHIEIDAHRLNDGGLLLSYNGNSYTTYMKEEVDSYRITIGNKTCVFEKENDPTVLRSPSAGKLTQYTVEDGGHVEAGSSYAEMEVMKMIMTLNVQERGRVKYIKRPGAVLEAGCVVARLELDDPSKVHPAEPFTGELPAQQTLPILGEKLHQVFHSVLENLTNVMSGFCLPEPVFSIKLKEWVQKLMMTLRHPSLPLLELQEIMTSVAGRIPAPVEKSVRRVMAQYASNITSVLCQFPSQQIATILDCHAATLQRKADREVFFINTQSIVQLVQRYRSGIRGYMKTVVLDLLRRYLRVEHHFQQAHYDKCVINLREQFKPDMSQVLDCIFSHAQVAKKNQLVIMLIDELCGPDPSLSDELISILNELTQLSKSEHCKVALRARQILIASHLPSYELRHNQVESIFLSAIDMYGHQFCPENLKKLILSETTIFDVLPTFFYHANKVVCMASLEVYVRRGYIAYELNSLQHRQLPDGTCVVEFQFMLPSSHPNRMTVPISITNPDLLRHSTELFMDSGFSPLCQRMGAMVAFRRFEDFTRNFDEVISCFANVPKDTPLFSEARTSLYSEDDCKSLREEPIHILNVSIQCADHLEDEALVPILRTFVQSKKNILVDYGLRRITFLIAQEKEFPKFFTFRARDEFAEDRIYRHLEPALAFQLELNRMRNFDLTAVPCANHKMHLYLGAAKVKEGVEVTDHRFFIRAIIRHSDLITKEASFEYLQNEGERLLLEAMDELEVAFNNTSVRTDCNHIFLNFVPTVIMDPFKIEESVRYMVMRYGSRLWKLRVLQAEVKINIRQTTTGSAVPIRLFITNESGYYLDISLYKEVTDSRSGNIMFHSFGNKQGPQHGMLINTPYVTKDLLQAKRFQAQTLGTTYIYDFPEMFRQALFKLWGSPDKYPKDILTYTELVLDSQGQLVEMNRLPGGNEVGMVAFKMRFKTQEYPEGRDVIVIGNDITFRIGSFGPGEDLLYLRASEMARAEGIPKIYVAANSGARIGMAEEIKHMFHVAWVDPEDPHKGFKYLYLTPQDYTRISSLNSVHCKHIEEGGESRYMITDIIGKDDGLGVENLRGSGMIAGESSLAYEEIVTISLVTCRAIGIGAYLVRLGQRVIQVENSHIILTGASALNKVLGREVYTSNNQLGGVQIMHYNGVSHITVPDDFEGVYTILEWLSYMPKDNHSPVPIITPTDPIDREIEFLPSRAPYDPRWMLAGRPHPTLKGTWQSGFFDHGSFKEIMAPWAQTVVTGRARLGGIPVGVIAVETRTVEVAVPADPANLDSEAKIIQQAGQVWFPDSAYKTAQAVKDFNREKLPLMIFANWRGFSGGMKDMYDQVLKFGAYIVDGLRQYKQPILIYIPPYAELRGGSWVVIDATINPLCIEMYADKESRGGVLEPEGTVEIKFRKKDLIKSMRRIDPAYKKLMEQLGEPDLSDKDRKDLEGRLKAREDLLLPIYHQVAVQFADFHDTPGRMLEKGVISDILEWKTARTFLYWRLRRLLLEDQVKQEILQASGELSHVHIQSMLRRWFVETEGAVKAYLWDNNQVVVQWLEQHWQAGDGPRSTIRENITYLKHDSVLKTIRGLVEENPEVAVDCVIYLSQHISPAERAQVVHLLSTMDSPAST

SMILES	IC50 [µM]
CCOC(=O)c1sc2c(c1C)c(=O)n(CCO)c(=O)n2Cc1ccc2ccccc2c1 [I-16, ethyl 3-(2-hydroxyethyl)-5-methyl-1-(naphthalen-2-ylmethyl)-2,4-dioxo-1H,2H,3H,4H-thieno[2,3-d]pyrimidine-6-carboxylate]	> 50
CCOC(=O)c1sc2c(c1C)c(=O)n(CCCCO)c(=O)n2CCc1ccccc1 [I-34, ethyl 3-(4-hydroxybutyl)-5-methyl-2,4-dioxo-1-(2-phenylethyl)-1H,2H,3H,4H-thieno[2,3-d]pyrimidine-6-carboxylate]	5 to 20
CCOC(=O)c1sc2c(c1C)c(=O)n(C[C@@H](C)O)c(=O)n2CCc1ccccc1 [I-81, ethyl 3-[(2R)-2-hydroxypropyl]-5-methyl-2,4-dioxo-1-(2-phenylethyl)-1H,2H,3H,4H-thieno[2,3-d]pyrimidine-6-carboxylate]	5 to 20
Cc1csc2c1c(=O)n(CC(=O)O)c(=O)n2CCc1ccccc1 [I-63]	20 to 50
CCOC(=O)c1sc2c(c1C)c(=O)n(CC(=O)O)c(=O)n2CC(OC)c1ccccc1 (centres unmarked) [I-67, 2-[6-(ethoxycarbonyl)-1-(2-methoxy-2-phenylethyl)-5-methyl-2,4-dioxo-1H,2H,3H,4H-thieno[2,3-d]pyrimidin-3-yl]acetic acid]	< 5
CCOC(=O)c1sc2c(c1C)c(=O)n(CCO)c(=O)n2CCc1cccc(Cl)c1 [I-21]	> 50
O=c1c2ccsc2n(CCc2ccccc2)c(=O)n1CCO [I-59]	> 50
Cc1c(C(=O)NCCO)sc2c1c(=O)n(CCO)c(=O)n2CCc1ccccc1 [I-57]	> 50
Cc1c(-c2ncco2)sc2c1c(=O)n(C(C)(C)C(=O)O)c(=O)n2C[C@@H](OC(C)C)c1ccccc1 [I-120, 2-methyl-2-[5-methyl-6-(1,3-oxazol-2-yl)-2,4-dioxo-1-[(2S)-2-phenyl-2-(propan-2-yloxy)ethyl]-1H,2H,3H,4H-thieno[2,3-d]pyrimidin-3-yl]propanoic acid]	5 to 20
CCOC(=O)c1sc2c(c1C)c(=O)n(C(C)(C)C(N)=O)c(=O)n2C[C@@H](OC(C)C)c1ccccc1 [I-114, ethyl 3-(1-carbamoyl-1-methylethyl)-5-methyl-2,4-dioxo-1-[(2S)-2-phenyl-2-(propan-2-yloxy)ethyl]-1H,2H,3H,4H-thieno[2,3-d]pyrimidine-6-carboxylate]	20 to 50
CCOC(=O)c1sc2c(c1C)c(=O)n(CCO)c(=O)n2Cc1ccc2[nH]ccc2c1 [I-51, ethyl 3-(2-hydroxyethyl)-1-(1H-indol-5-ylmethyl)-5-methyl-2,4-dioxo-1H,2H,3H,4H-thieno[2,3-d]pyrimidine-6-carboxylate]	> 50
O=C(O)Cn1c(=O)c2c3c(sc2n(CC(=O)c2ccccc2)c1=O)CCCC3 [I-2]	> 50
Cc1c(-c2ncco2)sc2c1c(=O)n(C(C)(C)C(=O)O)c(=O)n2C[C@H](OC1CCC(C)(C)CC1)c1ccccc1 [I-148, 2-[1-[(2R)-2-[(4,4-dimethylcyclohexyl)oxy]-2-phenylethyl]-5-methyl-6-(1,3-oxazol-2-yl)-2,4-dioxo-1H,2H,3H,4H-thieno[2,3-d]pyrimidin-3-yl]-2-methylpropanoic acid]	< 5
Cc1c(-c2ncco2)sc2c1c(=O)n(C(C)(C)C(=O)O)c(=O)n2C[C@H](OC[C@H](C)O)c1ccccc1 [I-178, 2-[1-[(2R)-2-[(2S)-2-hydroxypropoxy]-2-phenylethyl]-5-methyl-6-(1,3-oxazol-2-yl)-2,4-dioxo-1H,2H,3H,4H-thieno[2,3-d]pyrimidin-3-yl]-2-methylpropanoic acid]	< 5
Cc1c(-c2ncco2)sc2c1c(=O)n(C(C)(C)C(=O)O)c(=O)n2C[C@@H](OCC(F)(F)F)c1ccccc1 [I-138, (S)-2-methyl-2-(5-methyl-6-(oxazol-2-yl)-2,4-dioxo-1-(2-phenyl-2-(2,2,2-trifluoroethoxy)ethyl)-1,2-dihydrothieno[2,3-d]pyrimidin-3(4H)-yl)propanoic acid]	5 to 20
CCOC(=O)c1sc2c(c1C)c(=O)n(CCO)c(=O)n2CCc1ccc(F)cc1 [I-26, ethyl 1-[2-(4-fluorophenyl)ethyll]-3-(2-hydroxyethyl)-5-methyl-2,4-dioxo-1H,2H,3H,4H-thieno[2,3-d]pyrimidine-6-carboxylate]	5 to 20
COC(=O)c1sc2c(c1C)c(=O)n(CCO)c(=O)n2CCc1c(F)cccc1F [I-25]	> 50
Cc1c(-c2ncco2)sc2c1c(=O)n(C(C)(C)C(=O)O)c(=O)n2C[C@H](OCc1ccccc1)c1ccccc1 [I-136, 2-[1-[(2R)-2-(benzyloxy)-2-phenylethyl]-5-methyl-6-(1,3-oxazol-2-yl)-2,4-dioxo-1H,2H,3H,4H-thieno[2,3-d]pyrimidin-3-yl]-2-methylpropanoic acid]	< 5
CCOC(=O)c1sc2c(c1C)c(=O)n(CCO)c(=O)n2CCc1cc(F)cc(F)c1 [I-29, ethyl 1-[2-(3,5-difluorophenyl)ethyl]-3-(2-hydroxyethyl)-5-methyl-2,4-dioxo-1H,2H,3H,4H-thieno[2,3-d]pyrimidine-6-carboxylate]	> 50

Further lines, results first:

IC50 [µM]	SMILES
< 5	CCOC(=O)c1sc2c(c1C)c(=O)n(C(C)(C)C(N)=O)c(=O)n2CCc1ccccc1 [I-107, ethyl 3-(1-carbamoyl-1-methylethyl)-5-methyl-2,4-dioxo-1-(2-phenylethyl)-1H,2H,3H,4H-thieno[2,3-d]pyrimidine-6-carboxylate]
< 1	Cc1c(-c2ncco2)sc2c1c(=O)n(C(C)(C)C(=O)O)c(=O)n2C[C@H](OC[C@H](C)CO)c1ccccc1 [I-170, 2-(1-((R)-2-((R)-3-hydroxy-2-methylpropoxy)-2-phenylethyl)-5-methyl-6-(oxazol-2-yl)-2,4-dioxo-1,2-dihydrotheno[2,3-d]pyrimidin-3(4H)-yl)-2-methylpropanoic acid]
< 1	Cc1c(-c2ncco2)sc2c1c(=O)n(C(C)(C)C(=O)O)c(=O)n2C[C@H](OC[C@@H](C)CO)c1ccccc1 [I-171, 2-(1-((R)-2-((S)-3-hydroxy-2-methylpropoxy)-2-phenylethyl)-5-methyl-6-(oxazol-2-yl)-2,4-dioxo-1,2-dihydrothieno[2,3-d]pyrimidin-3(4H)-yl)-2-methylpropanoic acid]
< 0.1	COCc1ccccc1[C@H](Cn1c(=O)n(C(C)(C)C(=O)O)c(=O)c2c(C)c(-c3ncco3)sc21)OC1CCOCC1 [I-293, 2-[1-[(2R)-2-[2-(methoxymethyl)phenyl]-2-(oxan-4-yloxy)ethyl]-5-methyl-6-(1,3-oxazol-2-yl)-2,4-dioxo-1H,2H,3H,4H-thieno[2,3-d]pyrimidin-3-yl]-2-methylpropanoic acid]
< 1	CCCc1ccccc1CCn1c(=O)n(C(C)(C)C(N)=O)c(=O)c2c(C)c(-c3ncco3)sc21 [I-151, 2-methyl-2-[5-methyl-6-(1,3-oxazol-2-yl)-2,4-dioxo-1-[2-(2-propylphenyl)ethyl]-1H,2H,3H,4H-thieno[2,3-d]pyrimidin-3-yl]propanamide]
< 1	CCOC(=O)c1sc2c(c1C)c(=O)n(CC(=O)O)c(=O)n2CC(OC)c1ccccc1 (stereo in doubt) [I-105, 2-[6-(ethoxycarbonyl)-1-[(2S)-2-methoxy-2-phenylethyl]-5-methyl-2,4-dioxo-1H,2H,3H,4H-thieno[2,3-d]pyrimidin-3-yl]acetic acid]
< 1	Cc1c(-c2ncco2)sc2c1c(=O)n(C(C)(C)C(=O)O)c(=O)n2C[C@H](OCC(F)(F)F)c1ccccc1 [I-137, 2-methyl-2-[5-methyl-6-(1,3-oxazol-2-yl)-2,4-dioxo-1-[2-phenyl-2-(2,2,2-trifluoroethoxy)ethyl]-1H,2H,3H,4H-thieno[2,3-d]pyrimidin-3-yl]propanoic acid]
< 1	CCc1ccccc1[C@@H](Cn1c(=O)n(C(C)(C)C(=O)O)c(=O)c2c(C)c(-c3ncco3)sc21)OCCO [I-263, 2-[1-[(2S)-2-(2-ethylphenyl)-2-(2-hydroxyethoxy)ethyl]-5-methyl-6-(1,3-oxazol-2-yl)-2,4-dioxo-1H,2H,3H,4H-thieno[2,3-d]pyrimidin-3-yl]-2-methylpropanoic acid]
< 0.1	Cc1c(-c2ncco2)sc2c1c(=O)n(C(C)(C)C(=O)O)c(=O)n2C[C@H](OC1CCOCC1)c1ccccc1CO [I-296, 2-[1-[(2R)-2-[2-(hydroxymethyl)phenyl]-2-(oxan-4-yloxy)ethyl]-5-methyl-6-(1,3-oxazol-2-yl)-2,4-dioxo-1H,2H,3H,4H-thieno[2,3-d]pyrimidin-3-yl]-2-methylpropanoic acid]
< 0.1	CCOc1ccccc1[C@H](Cn1c(=O)n(C(C)(C)C(=O)O)c(=O)c2c(C)c(-c3ncco3)sc21)OC1CCOCC1 [I-183, 2-[1-[(2R)-2-(2-ethoxyphenyl)-2-(oxan-4-yloxy)ethyl]-5-methyl-6-(1,3-oxazol-2-yl)-2,4-dioxo-1H,2H,3H,4H-thieno[2,3-d]pyrimidin-3-yl]-2-methylpropanoic acid]
